Data published in patent US11000033B2, “Ketone or oxime compound, and herbicide” (NISSAN CHEMICAL CORPORATION, priority 2014, dated 2021).

Tests used:
Type in all cases: in vivo
[1] = system: Echinochloa crus-galli var. crus-galli; test: Test Example 3: herbicidal effect by foliage application, Wagner pot (symbol H); conditions: application herbicide amount 320 g/ha
Summary of the method: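 The compound, formulated as an emulsion and diluted with water to a predetermined rate, is applied uniformly to leaves of two-week-old seedlings growing in submerged alluvial soil at 25–30 °C. Rice is included. Each plant is assessed 3 weeks later using defined criteria.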

rapeseed = test: Test Example 4: effect on crop by soil treatment (symbol g); conditions: application herbicide amount 320 g/ha
Summary of the method: (§1)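 Sterilized diluvial soil, spot sowing, ~1.5 cm soil cover; greenhouse 25–30° C.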

Lolium multiflorum Lam. = test: Test Example 4: herbicidal effect by soil treatment (symbol K); conditions: application herbicide amount 320 g/ha
Summary of the method: (§2)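 Seeds were sown in sterilized diluvial soil, covered with about 1.5 cm of soil, and the soil surface was sprayed with a water-diluted emulsion of the compound at a predetermined rate. Plants grew in a greenhouse at 25° C. to 30° C.; effects were scored visually 3 weeks after application.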

soybean = test: Test Example 4: effect on crop by soil treatment (symbol d); conditions: application herbicide amount 320 g/ha
Summary of the method: as §1

Setaria viridis = test: Test Example 4: herbicidal effect by soil treatment (symbol G); conditions: application herbicide amount 320 g/ha
Summary of the method: as §2

[2] = system: directly sowed rice plant; test: Test Example 3: effect on crop by foliage application, Wagner pot (symbol b); conditions: application herbicide amount 320 g/ha
Summary of the method: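 Alluvial soil in a 1/10000-are Wagner pot was flooded to a water depth of 0.1–0.5 cm. Echinochloa crus-galli var. crus-galli, Leptochloa chinensis, Cyperus difformis and rice were sown into it and grown in a greenhouse at 25–30 °C.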

[3] = system: Echinochloa oryzacola Vasing.; test: Test Example 2: herbicidal activity, application during weed generation in submerged conditions (symbol A); conditions: Table 23; application herbicide amount 320 g/ha; grade 0-5 by criteria of Test Example 1
Summary of the method: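 Treatment timing was the one- to two-leaf stage, with diluted emulsifiable compound dropped onto the paddy water (depth 4 cm) over alluvial soil. All three species grew from a mixed sowing in a 25° C. to 30° C. greenhouse. Injury was judged by eye 3 weeks on.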

Avena fatua = test: Test Example 5: herbicidal effect by foliage application, plastic box (symbol I); conditions: 320 g/ha, 3 weeks after application
Summary of the method: (§3)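 Greenhouse foliar test: seedlings at 14 days, grown 25° C. to 30° C. in sterilized diluvial soil; compound applied as an aqueous dilution of an emulsion; response read 3 weeks after spraying.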

corn = test: Test Example 4: effect on crop by soil treatment (symbol c); conditions: application herbicide amount 320 g/ha
Summary of the method: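 Soil-treatment setup: crop and weed seeds were spot-sown into sterilized diluvial soil, then buried beneath approximately 1.5 cm of it, and the boxes were housed in a 25–30° C. greenhouse.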

wheat = test: Test Example 5: effect on crop by foliage application, plastic box (symbol e); conditions: 320 g/ha, 3 weeks after application
Summary of the method: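 Plants were raised from seed in a greenhouse (25° C. to 30° C.) after sowing in a plastic box of sterilized diluvial soil.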

Stellaria media = test: Test Example 5: herbicidal effect by foliage application, plastic box (symbol P); conditions: 320 g/ha, 3 weeks after application
Summary of the method: as §3

| SMILES | herbicidal effect on H (Echinochloa crus-galli var. crus-galli), grade 0-5 [1] | g: rapeseed, effect on crop grade (rapeseed) | K: Lolium multiflorum Lam., herbicidal effect grade (Lolium multiflorum Lam.) | d: soybean, effect on crop grade (soybean) | G: Setaria viridis, herbicidal effect grade (Setaria viridis) | effect on crop b (directly sowed rice plant), grade 0-5 [2] | Herbicidal effect grade, A: Echinochloa oryzacola Vasing. [3] | I: Avena fatua, herbicidal effect grade (Avena fatua) | c: corn, effect on crop grade (corn) | e: wheat, effect on crop grade (wheat) | P: Stellaria media, herbicidal effect grade (Stellaria media) |
| --- | --- | --- | --- | --- | --- | --- | --- | --- | --- | --- | --- |
| CCC(CCC1CC(O)=C(c2c(C)cc(C)cc2C)C1=O)=NOC (mixture of isomers) [4-001] | 2 (Herbicidal ratio of 20% or higher and lower than 40%) | 1 (Herbicidal ratio of 5% or higher and lower than 20%) | 5 (Herbicidal ratio of 90% or more (almost completely withered)) | 0 (Herbicidal ratio of 5% or lower (almost no effect)) | 0 (Herbicidal ratio of 5% or lower (almost no effect)) | 4 (Herbicidal ratio of 70% or higher and lower than 90%) | 0 (Herbicidal ratio of 5% or lower (almost no effect)) | 4 (Herbicidal ratio of 70% or higher and lower than 90%) | 0 (Herbicidal ratio of 5% or lower (almost no effect)) | 0 (Herbicidal ratio of 5% or lower (almost no effect)) | – |
| CON=C(C)CC1CC(O)=C(c2c(C)cc(-n3cc(Cl)cn3)cc2C)C1=O (mixture of isomers) [6-004] | 5 (Herbicidal ratio of 90% or more (almost completely withered)) | 4 (Herbicidal ratio of 70% or higher and lower than 90%) | 5 (Herbicidal ratio of 90% or more (almost completely withered)) | 0 (Herbicidal ratio of 5% or lower (almost no effect)) | 5 (Herbicidal ratio of 90% or more (almost completely withered)) | 5 (Herbicidal ratio of 90% or more (almost completely withered)) | 5 (Herbicidal ratio of 90% or more (almost completely withered)) | 4 (Herbicidal ratio of 70% or higher and lower than 90%) | 2 (Herbicidal ratio of 20% or higher and lower than 40%) | 0 (Herbicidal ratio of 5% or lower (almost no effect)) | – |
| CCc1cc(-n2cc(Cl)cn2)cc(C)c1C1=C(O)CC(CC(C)=NOC)C1=O (mixture of isomers) [6-005] | 5 (Herbicidal ratio of 90% or more (almost completely withered)) | 0 (Herbicidal ratio of 5% or lower (almost no effect)) | 5 (Herbicidal ratio of 90% or more (almost completely withered)) | 1 (Herbicidal ratio of 5% or higher and lower than 20%) | 5 (Herbicidal ratio of 90% or more (almost completely withered)) | 5 (Herbicidal ratio of 90% or more (almost completely withered)) | 5 (Herbicidal ratio of 90% or more (almost completely withered)) | 5 (Herbicidal ratio of 90% or more (almost completely withered)) | 3 (Herbicidal ratio of 40% or higher and lower than 70%) | 4 (Herbicidal ratio of 70% or higher and lower than 90%) | – |
| CC#Cc1cc(C)c(C2=C(O)CC(CC(C)=NOC)C2=O)c(CC)c1 (mixture of isomers) [6-006] | 5 (Herbicidal ratio of 90% or more (almost completely withered)) | 4 (Herbicidal ratio of 70% or higher and lower than 90%) | 5 (Herbicidal ratio of 90% or more (almost completely withered)) | 0 (Herbicidal ratio of 5% or lower (almost no effect)) | 5 (Herbicidal ratio of 90% or more (almost completely withered)) | 5 (Herbicidal ratio of 90% or more (almost completely withered)) | 5 (Herbicidal ratio of 90% or more (almost completely withered)) | 1 (Herbicidal ratio of 5% or higher and lower than 20%) | 5 (Herbicidal ratio of 90% or more (almost completely withered)) | 5 (Herbicidal ratio of 90% or more (almost completely withered)) | – |
| CC#Cc1cc(C)c(C2=C(O)CC(CC(C)=NOC)C2=O)c(C)c1 (mixture of isomers) [6-009] | 5 (Herbicidal ratio of 90% or more (almost completely withered)) | 4 (Herbicidal ratio of 70% or higher and lower than 90%) | 5 (Herbicidal ratio of 90% or more (almost completely withered)) | 0 (Herbicidal ratio of 5% or lower (almost no effect)) | 5 (Herbicidal ratio of 90% or more (almost completely withered)) | 5 (Herbicidal ratio of 90% or more (almost completely withered)) | 3 (Herbicidal ratio of 40% or higher and lower than 70%) | 4 (Herbicidal ratio of 70% or higher and lower than 90%) | 5 (Herbicidal ratio of 90% or more (almost completely withered)) | 5 (Herbicidal ratio of 90% or more (almost completely withered)) | – |
| CCOC(=O)C(C(=O)CC1CC1)C1CC(O)=C(c2c(C)cc(C)cc2C)C1=O (centres unmarked) [2-025] | 3 (Herbicidal ratio of 40% or higher and lower than 70%) | 0 (Herbicidal ratio of 5% or lower (almost no effect)) | 4 (Herbicidal ratio of 70% or higher and lower than 90%) | 0 (Herbicidal ratio of 5% or lower (almost no effect)) | 5 (Herbicidal ratio of 90% or more (almost completely withered)) | 4 (Herbicidal ratio of 70% or higher and lower than 90%) | – | 0 (Herbicidal ratio of 5% or lower (almost no effect)) | 0 (Herbicidal ratio of 5% or lower (almost no effect)) | 0 (Herbicidal ratio of 5% or lower (almost no effect)) | 0 (Herbicidal ratio of 5% or lower (almost no effect)) |
| CON=C(C)CC1CC(O)=C(c2c(C)cc(C(=O)OC)cc2C)C1=O (centres unmarked) [6-023] | 5 (Herbicidal ratio of 90% or more (almost completely withered)) | 3 (Herbicidal ratio of 40% or higher and lower than 70%) | 5 (Herbicidal ratio of 90% or more (almost completely withered)) | 0 (Herbicidal ratio of 5% or lower (almost no effect)) | 3 (Herbicidal ratio of 40% or higher and lower than 70%) | 5 (Herbicidal ratio of 90% or more (almost completely withered)) | – | 5 (Herbicidal ratio of 90% or more (almost completely withered)) | 1 (Herbicidal ratio of 5% or higher and lower than 20%) | 3 (Herbicidal ratio of 40% or higher and lower than 70%) | 0 (Herbicidal ratio of 5% or lower (almost no effect)) |
| CON=C(C)CC1CC(O)=C(c2c(C)cc(C(C)=O)cc2C)C1=O (centres unmarked) [6-026] | 5 (Herbicidal ratio of 90% or more (almost completely withered)) | 0 (Herbicidal ratio of 5% or lower (almost no effect)) | 1 (Herbicidal ratio of 5% or higher and lower than 20%) | 0 (Herbicidal ratio of 5% or lower (almost no effect)) | 4 (Herbicidal ratio of 70% or higher and lower than 90%) | 5 (Herbicidal ratio of 90% or more (almost completely withered)) | – | 5 (Herbicidal ratio of 90% or more (almost completely withered)) | 0 (Herbicidal ratio of 5% or lower (almost no effect)) | 3 (Herbicidal ratio of 40% or higher and lower than 70%) | 0 (Herbicidal ratio of 5% or lower (almost no effect)) |
